US20260232706A1, “1H-PYRAZOLE ANALOGUES AND METHODS AND USES THEREOF” (University of Manitoba, priority 2022, published 2026)

Legend:
[1] = test system: neuroblastoma-spinal cord hybrid NSC-34 cells; assay: Neuroprotective effect/cell viability analysis in NSC-34 cells against H2O2 induced oxidative stress; format: cell-based; details: for neuroprotection in scavenging neurotoxic effects of H2O2 compared to EDR / viability compared to EDR: 250 μM H2O2; for viability compared to EDR: 50 μM dose
Protocol: (§1) Methods: The in vitro properties and antioxidant abilities of the synthesized B^5-EDR analogues were assessed in cell-based assays. […] The methodology employed for each of these assays is detailed below.
(iii) Methodology for neuroprotective effect/cell viability analysis in (NSC-34) cells (FIGS. 8A-B): Briefly, NSC-34 cells with about 20 k cells per well in 96 well plates were cultured in a complete medium consisting of high glucose Dulbecco's modified eagle medium (DMEM) (Thermo Fisher Scientific) supplemented with about 10% US-origin fetal bovine serum (Thermo Fisher Scientific), GlutaMAX-1, about 200 mM (100×) (Thermo Fisher Scientific), about 1% 100 mM Sodium pyruvate and about 1% 10,000 U/mL penicillin-streptomycin solution (Thermo Fisher Scientific) for about 20 h to reach confluency of about 70%—about 75%. All the cells were cultured in an incubator with about 5% of CO2 at about 37° C. About 20 kcells/100 μl/well were seeded in 96 well plates for about 20 h in triplicates. […] After about 1 h, the cells were treated with 250 μM of H2O2 for about 2 h. After a total period of about 3 h, about 10 μl of WST-8 reagent was added in each well and the absorbance readings were recorded after about 2.5 h at about 450 nm. All the experiments were repeated at least three times and measurements were run in triplicates.

[2] = test system: primary cortical neuronal cells; assay: Neurotoxicity/cell viability analysis in primary cortical neuronal cells (WST-8); format: cell-based, mouse; details: for cell viability compared to controls: 10 μM and 1 μM, FIG. 6B
Protocol: as §1
(i) Methodology for neurotoxicity/cell viability analysis in primary cortical neuronal cells (FIGS. 6A-B): Briefly, the cerebral cortex was isolated from fetus of mouse at about 17-about 18-day gestation. After meninges and blood vessels were removed, the tissue was digested with trypsin for about 15 min at about 37° C., then incubated with DNase for about another 15 min at about 37° C. and terminated with DMEM plus about 10% fetal bovine serum. After the supernatant was removed, the tissue was added with about 5-ml neurobasal medium (Life Technologies Inc) and triturated by gently pipetting. Neuronal cells contained in the supernatant were transferred to poly-D-lysine-coated plastic culture plates, adjusted to approximately […], and cultured in neurobasal medium with GS21 supplements (Sigma-Aldrich Canada), 1× GlutaMax (Life Technologies Inc,) and about 1% penicillin-streptomycin at about 37° C. under about 5% CO2. About 100 kcells/100 μl/well were seeded in 96 well plates for 2 Div. […] On 8th Div of neurons, about 10 μl of WST reagent was added to each well and incubated for about 2 h. After about 2 h of incubation, the absorbance of soluble coloured formazan dye was measured […] at about […] using microplate reader (Biotek instruments) with the background control as a blank. The cell viability was determined by comparing the absorbance of compounds treated cells to that of control cells. Data are representative of two independent experiments, with each measurement or dose tested six times.

[3] = test system: neuroblastoma-spinal cord hybrid NSC-34 cells; assay: Neurotoxicity/cell viability analysis in NSC-34 cells (WST-8); format: cell-based; details: 1 to 100 μM
Protocol: as §1
(ii) Methodology for neurotoxicity/cell viability analysis in (NSC-34) cells (FIGS. 7A-C): Briefly, NSC-34 cells with about 20 k cells per well in 96 well plates were cultured in a complete medium consisting of high glucose Dulbecco's modified eagle medium (DMEM) (Thermo Fisher Scientific) supplemented with about 10% US-origin fetal bovine serum (Thermo Fisher Scientific), GlutaMAX-1, about 200 mM (100×) (Thermo Fisher Scientific), about 1% 100 mM Sodium pyruvate and about 1% 10,000 U/mL penicillin-streptomycin solution (Thermo Fisher Scientific) for about 20 h to reach confluency of about 70%—about 75%. All the cells were cultured in an incubator with about 5% of CO2 at about 37° C. About 20 kcells/100 μl/well were seeded in 96 well plates for about 20 h in triplicates. Cells were treated with different concentration of compounds and incubated for about 20 h. […] After about 2.5 h of incubation, the absorbance of soluble coloured formazan dye was measured […] at about […] using microplate reader (Biotek instruments) with the background control as a blank. The cell viability was determined by comparing the absorbance of compounds treated cells to that of control cells. […]

[4] = cited from earlier work
[5] = molecular target: P-glycoprotein (Pgp) efflux pump (Homo sapiens, UniProt P08183); details: cited from earlier work
CYP3A4 enzymes = CYP3A4 enzymes (Homo sapiens, UniProt P08684); details: cited from earlier work
ALS = details: patients in early stages, drug for 6 months or more; cited from earlier work
[6] = test system: neuroblastoma-spinal cord hybrid NSC-34 cells; assay: Neuroprotective effect/cell viability analysis in NSC-34 cells against H2O2 induced oxidative stress; format: cell-based; details: prophylactic treatment, 250 μM H2O2, FIG. 7A

Sequence of P-glycoprotein (Pgp) efflux pump (P08183 whole entry): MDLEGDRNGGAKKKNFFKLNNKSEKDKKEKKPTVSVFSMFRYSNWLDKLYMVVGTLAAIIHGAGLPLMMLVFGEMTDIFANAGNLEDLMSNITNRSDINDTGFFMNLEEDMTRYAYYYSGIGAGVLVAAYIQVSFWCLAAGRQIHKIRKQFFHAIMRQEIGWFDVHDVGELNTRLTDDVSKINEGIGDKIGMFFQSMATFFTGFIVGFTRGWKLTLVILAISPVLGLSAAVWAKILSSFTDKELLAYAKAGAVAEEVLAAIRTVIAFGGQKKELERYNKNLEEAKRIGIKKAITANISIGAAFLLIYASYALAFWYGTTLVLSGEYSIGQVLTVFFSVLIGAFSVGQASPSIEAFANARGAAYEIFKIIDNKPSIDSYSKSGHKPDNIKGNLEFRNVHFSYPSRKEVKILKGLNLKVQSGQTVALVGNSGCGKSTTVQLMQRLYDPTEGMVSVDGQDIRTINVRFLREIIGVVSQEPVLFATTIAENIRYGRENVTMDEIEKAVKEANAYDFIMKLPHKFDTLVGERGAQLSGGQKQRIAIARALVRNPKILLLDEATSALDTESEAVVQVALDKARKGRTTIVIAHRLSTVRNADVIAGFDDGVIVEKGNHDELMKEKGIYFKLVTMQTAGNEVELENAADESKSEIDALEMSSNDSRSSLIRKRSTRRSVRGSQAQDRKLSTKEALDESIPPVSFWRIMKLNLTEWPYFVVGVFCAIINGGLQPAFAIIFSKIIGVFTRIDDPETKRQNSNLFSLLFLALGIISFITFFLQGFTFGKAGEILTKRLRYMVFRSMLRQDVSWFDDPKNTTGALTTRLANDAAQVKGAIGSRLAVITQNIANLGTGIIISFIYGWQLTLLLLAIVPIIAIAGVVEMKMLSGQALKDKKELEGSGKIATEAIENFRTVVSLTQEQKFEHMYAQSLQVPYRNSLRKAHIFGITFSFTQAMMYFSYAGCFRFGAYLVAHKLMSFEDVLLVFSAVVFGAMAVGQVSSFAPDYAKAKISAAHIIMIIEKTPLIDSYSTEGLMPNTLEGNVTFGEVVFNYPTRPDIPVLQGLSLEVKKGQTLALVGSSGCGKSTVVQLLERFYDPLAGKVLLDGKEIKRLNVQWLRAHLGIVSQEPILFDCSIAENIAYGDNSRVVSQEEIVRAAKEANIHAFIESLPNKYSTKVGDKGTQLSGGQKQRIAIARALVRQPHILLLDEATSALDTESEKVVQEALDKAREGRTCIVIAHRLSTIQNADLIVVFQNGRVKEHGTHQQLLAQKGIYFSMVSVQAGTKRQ
Sequence of CYP3A4 enzymes (P08684 whole entry): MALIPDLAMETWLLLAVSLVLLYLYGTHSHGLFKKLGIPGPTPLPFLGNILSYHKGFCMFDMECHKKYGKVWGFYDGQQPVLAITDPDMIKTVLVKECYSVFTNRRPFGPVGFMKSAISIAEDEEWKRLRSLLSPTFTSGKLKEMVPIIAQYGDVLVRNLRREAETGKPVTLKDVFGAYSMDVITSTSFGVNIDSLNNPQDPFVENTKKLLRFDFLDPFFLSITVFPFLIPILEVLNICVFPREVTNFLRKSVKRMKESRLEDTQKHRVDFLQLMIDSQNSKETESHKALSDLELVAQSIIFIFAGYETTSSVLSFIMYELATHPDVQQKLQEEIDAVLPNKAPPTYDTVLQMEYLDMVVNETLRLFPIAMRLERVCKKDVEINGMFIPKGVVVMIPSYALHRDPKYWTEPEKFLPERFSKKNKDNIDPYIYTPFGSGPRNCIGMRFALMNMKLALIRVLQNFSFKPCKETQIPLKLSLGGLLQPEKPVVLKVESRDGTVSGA

SMILES	neuroprotection in scavenging neurotoxic effects of H2O2 compared to EDR ([1]; 25 μM)	viability compared to EDR [1]	cell viability compared to controls [2]	neuroprotection in scavenging neurotoxic effects of H2O2 compared to EDR ([1]; 1 μM)	decrease in cell viability compared to control (DMSO) ([2]; mouse, 6 days, 25 μM) [%]	neurotoxicity and cytotoxicity towards NSC-34 motor neuronal cells [3]	H2O2 scavenging effects ([1]; 250 μM H2O2, FIGS. 8A-B)	aqueous solubility [4]	fraction of EDR existing as an anion ([4]; physiological pH about 7.4)	fraction of EDR existing in neutral form ([4]; physiological pH about 7.4)	P-glycoprotein efflux pump substrate status [5]	metabolism by CYP3A4 (CYP3A4 enzymes)	effect on progression of ALS (ALS)	protection from loss of cell viability induced by H2O2 [6]
CC1(C)OB(c2cc(C(F)(F)F)nn2-c2ccccc2)OC1(C)C [NS-1-12, 3-triflouromethyl-5-(4,4,5,5-tetramethyl-1,3,2-dioxaborolan-2-yl)-1-phenyl1H-pyrazole]	better neuroprotection	almost equal viability												
F[B-](F)(F)c1cc(C(F)(F)F)nn1-c1ccccc1.[K+] [NS-1-19, Potassium trifluoro(3-triflouromethyl-1phenyl-1H-pyrazol-5-yl)borate]	better neuroprotection	almost equal viability	around 100%	better neuroprotection										
Cc1cc([B-](F)(F)F)n(-c2ccccc2)n1.[K+] [NS-1-21, Potassium trifluoro(3-methyl-1phenyl-1H-pyrazol-5-yl)borate]	better neuroprotection	almost equal viability	around 100%	better neuroprotection										
CC1=NN(c2ccccc2)C(=O)C1 [EDR, 3-methyl-1-phenyl-2-pyrazolin-5-one]					~70±10	no neurotoxicity and cytotoxicity	significant H2O2 scavenging effects in a dose dependent manner	about 1.85 mg/ml	about 71.5%	about 28.5%	substrate	metabolized pre-systematically	delayed the progression of ALS	protected NSC-34 cells from loss of cell viability
